Data from patent publication US8048925B2, “Bis(thio-hydrazide amide) salts for treatment of cancers” (Synta Pharmaceuticals Corp., priority 2004, dated 2011).
Read-outs that look alike come from different tables or passages of the source.

Assays:
[1] = Solubility in water, saturated suspension filtered and measured by HPLC; format: physicochemical; conditions: for solubility: thermodynamic from solid; for water solubility compared with the corresponding neutral or monosalt compounds: result in words
Description: A compound was weighed and water was added to the compound such that the resulting concentration of the compound was about 100 mg/mL. The mixture was then shaken well and sonicated (about 5-10 min at about 50° C.). If the added amounts of the compound were totally solubilized, more amounts of the compound were added to the solution and the mixture was shaken well and sonicated until a suspension was achieved. The suspension was then filtered through a 0.2 μm filter. The filtered solution was diluted with DMSO. Then the mixture was analyzed by HPLC to determine the concentration of the compound.
The HPLC system consisted of the HP 1100 Model (Agilent, Wilmington, Del.) equipped with a model 1100 quaternary pump, a model 1100 autosampler, a model 1100 Diode-Array Detector for UV detection at 280 nm. HPLC analysis was performed using a gradient mobile phase consisting of acetonitrile-water containing 0.1% formic acid. Mobile phases were degassed and filtered through a solvent filtration apparatus and pumped at a constant rate of 1.0 mL/min. Separation was made on an XTerra MS C18 analytical column, 4.6 mm i.d.×150 mm, (Waters Corp., Milford, Mass., USA) fitted with a pre-column filter (XTerra MS C18, 3.9 mm×20 mm). The column was maintained at 40° C.

[2] = Pharmacokinetics study in dog, bioavailability AUCpo/AUCiv; format: in vivo
Description: Male beagle dogs were acclimated for at least one week prior to use, were fed laboratory chow and water ad libitum, and were housed in temperature and humidity controlled rooms. Compounds were prepared as a solution for intravenous injection or a capsule for oral administration. Three dogs were used for the study. Compounds were injected intravenously via cephalic vein or by oral gavage. The dose was adjusted based on the animal's body weight. Blood samples were collected at intervals of 5, 10 and 30 min and 1, 2, 4, 6, 8 and 24 hr (example) after administration of the compound and plasma samples were prepared after centrifugation (5000 rpm, 8 min) of whole blood samples. Compound in plasma was measured by a liquid chromatography with tandem mass spectrophotometer (LC/MS/MS) after 50 μl of these samples were extracted by protein precipitation with acetonitrile. The compound concentration was determined by the standard curve (concentration vs. peak area) made with the same extraction procedure of controlled plasma. The area under curve (AUC) was calculated using the modified trapezoidal method. The portion of AUC from the last measurable plasma concentration to infinity was estimated by C/k, where k was expressed by the least square regression of the log-linear concentration time points and C represents the last measurable plasma concentration. Bioavailability was calculated by AUCpo/AUCiv.
Compounds (1) and (3) and its internal standard were extracted from heparinized plasma by protein precipitation with acetonitrile. Chromatography was achieved on an XTerra column (Waters, particle size: 5 μm; 100 mm×3.0 mm i.d.) using a mixture of acetonitrile, water and formic acid. Analysis was performed on a Sciex API 365 tandem mass spectrometer with turbo ion spray interface. Negative ions were measured using the multiple-reaction-monitoring (MRM) mode with m/z 399.0→165.1. The run time was 9 min per sample, and Compounds (1) and (3) were quantitated by a peak area ratio using 1/×^2-weighted least-square linear regression plot.

[3] = water, shaken and sonicated about 5-10 min at about 50° C., filtered 0.2 μm, HPLC
[4] = water, shaken and sonicated about 5-10 min at about 50° C., filtered 0.2 μm, HPLC, read-out: Solubility in water

Row | Compound | water solubility compared with the corresponding neutral or monosalt compounds [1] | solubility [1, 4] [mg/mL] | also measured
1 | CN(NC(=O)CC(=O)NN(C)C(=S)c1ccccc1)C(=S)c1ccccc1 [Compound 1, Disodium; 2-(N′-methyl-N′-thiobenzoyl-hydrazinocarbonyl)-1-(methyl-thiobenzoyl-hydrazono)-ethanolate] | significantly greater water solubility | – | solubility ([1]; 50 °C, water, read-out: water solubility): > 1000 mg/mL; Solubility in water [1, 3]: >1000 mg/mL; bioavailability ([2]; male, beagle, plasma, oral, see Example 16 (dog), read-out: bioavailability): 80%
2 | CN(/N=C(\[O-])CC(=O)NN(C)C(=S)c1ccccc1)C(=S)c1ccccc1.[Na+] [Compound 3, Sodium; 2-(N′-methyl-N′-thiobenzoyl-hydrazinocarbonyl)-1-(methyl-thiobenzoyl-hydrazono)-ethanolate] | – | 52.8 | bioavailability ([2]; dog, plasma, male beagle dogs, capsule oral vs intravenous solution, AUCpo/AUCiv, read-out: Bioavailability): 35%
3 | CN(/N=C(\[O-])CC(=O)NN(C)C(=S)c1ccccc1)C(=S)c1ccccc1.[Li+] [Compound 4, Lithium; 2-(N′-methyl-N′-thiobenzoyl-hydrazinocarbonyl)-1-(methyl-thiobenzoyl-hydrazono)-ethanolate] | – | 53.5 | –
4 | CN(/N=C(\[O-])C/C([O-])=N/N(C)C(=S)c1ccccc1)C(=S)c1ccccc1.[Li+].[Li+] [Compound 5, Dilithium; 2-(N′-methyl-N′-thiobenzoyl-hydrazinocarbonyl)-1-(methyl-thiobenzoyl-hydrazono)-ethanolate] | significantly greater water solubility | 626 | –
5 | CN(/N=C(\[O-])C/C([O-])=N/N(C)C(=S)c1ccccc1)C(=S)c1ccccc1.[Mg+2] [Compound 8, Magnesium; 2-(N′-methyl-N′-thiobenzoyl-hydrazinocarbonyl)-1-(methyl-thiobenzoyl-hydrazono)-ethanolate] | – | 43.5 | –
6 | CN(/N=C(\[O-])CC(=O)NN(C)C(=S)c1ccccc1)C(=S)c1ccccc1.[K+] [Compound 10, Monopotassium; 2-(N′-methyl-N′-thiobenzoyl-hydrazinocarbonyl)-1-(methyl-thiobenzoyl-hydrazono)-ethanolate] | – | 41.2 | –
7 | CN(/N=C(\[O-])C/C([O-])=N/N(C)C(=S)C1(C)CC1)C(=S)C1(C)CC1.[Na+].[Na+] [Compound 12, Disodium; 2-(N′-methyl-N′-thio-1-methylcyclopropyl-hydrazinocarbonyl)-1-(methyl-thio-1-methylcyclopropyl-hydrazono)-ethanolate] | significantly greater water solubility | > 1000 | –
8 | CN(/N=C(\[O-])C/C([O-])=N/N(C)C(=S)C1CC1)C(=S)C1CC1.[Na+].[Na+] [Compound 13, Disodium; 2-(N′-methyl-N′-thiocyclopropyl-hydrazinocarbonyl)-1-(methyl-thiocyclopropyl-hydrazono)-ethanolate] | significantly greater water solubility | > 1000 | –
9 | CN(/N=C(\[O-])C/C([O-])=N/N(C)C(=S)C1(C)CC1)C(=S)C1(C)CC1.[K+].[K+] [Compound 14, Dipotassium; 2-(N′-methyl-N′-thio-1-methylcyclopropyl-hydrazinocarbonyl)-1-(methyl-thio-1-methylcyclopropyl-hydrazono)-ethano late] | significantly greater water solubility | > 1000 | –
10 | CN(NC(=O)CC(=O)NN(C)C(=S)c1ccccc1)C(=S)c1ccccc1 [Neutral Form of Compound 1, N-Malonyl-bis(N′-thiobenzoyl-N′-methyl hydrazide)] | – | – | water solubility ([1]; water, listed as neutral form of Compounds (1) and (2)): about 0.1 mg/ml; Solubility in water [1, 3]: <0.1 mg/mL; bioavailability ([2]; male beagle dogs, capsule oral vs intravenous solution, AUCpo/AUCiv): 4.8%; bioavailability ([2]; see Example 16 (dog)): 4.8%
11 | Cholin; 2-(N′-methyl-N′-thiobenzoyl-hydrazinocarbonyl)-1-(methyl-thiobenzoyl-hydrazono)-ethanolate [Compound 11] | – | – | Solubility in water [1, 3]: 264.0 (>200) mg/mL
